What all share (format): in vivo
The subject of one series is DOPJU. Nature of the series: Herbicidal damage to weed DOPJU (Table B2). The note with it: application rate 50 g/ha. From the text:
(§1) To produce a preparation of active compound, 1 part by weight of an active compound combination according to the invention is mixed with the stated amount of solvent and, after addition of the stated amount of the emulsifier, diluted with water to the desired concentration.
(§2) Vessels for planting (500 cm^2) are filled with soil from a rice field, and in each case 3 rice plants (cultivar: Nipponbare, 2-3-leaf stage, height: about 15 cm) are planted into the middle of vessels for planting. Into the same vessels for planting, seeds are sown. The soil in the vessels is kept moist. After two days, each vessel for planting is flooded to a water depth of 2-3 cm.
(§3) Five days after the rice plants were transplanted, the amount of active compound is, in the preparation described above, applied to the surface of the water in the vessels for planting using a pipette. The water depth in the vessels for planting is maintained at 2-3 cm.
(§4) 3 weeks after the application of active compound, the efficacy is rated in % damage in comparison to the untreated control.
(§5) Active compounds, application rates and results are shown in Table A1 below, the abbreviations used in the table having the following meanings: • (I-65) N-[2,6-dichloro-3-[2,6-dioxocyclohexyl)-carbonyl]-phenyl]pyrrolidone-1-carboxamide • (I-2) N′-[2,6-dichloro-3-[(2,6-dioxo-cyclohexyl)-carbonyl]-phenyl]-N-methoxy-N-methyl-urea • (A) fentrazamide

In a further series the test system is Lindernia pyxidari. Nature of the series: Greenhouse test in transplanted paddy rice: herbicidal damage to weed. The following applies: applied to water surface, rated 3 weeks after application vs untreated control.
Source text: as §1, §2, §3, §4, §5

The next series has as its system ROT/N. Nature of the series: Herbicidal damage to weed ROT/N (Tables B1, B3). The following applies: application rate 50 g/ha.
Series [1] deals with rice plants (cultivar: Nipponbare). Nature of the series: Greenhouse test in transplanted paddy rice: crop damage. The note with it: rated 3 weeks after application.
Source text: as §1, §2, §3, §4, §5

SMILES strings stand for the structures.

For `CCN(C(=O)n1nnn(-c2ccccc2Cl)c1=O)C1CCCCC1` [(A), 4-(2-chloro-phenyl)-N-cyclohexyl-N-ethyl-4,5-dihydro-5-oxo-1H-tetrazol-1-carboxamide], in the series with DOPJU, the “Damage (to DOPJU) (%)” value stood at 50%. In the series on Lindernia pyxidari (application rate 150 g/ha), the “Damage to Lindernia pyxidari (%)” value is listed as 70%. The “Damage (to ROT/N) (%)” value in the series with ROT/N (Table B1) is recorded as 60%. Also, in series [1] (application rate 150 g/ha), the “Damage to rice (%)” value is listed as 0%.

Regarding `CCC1(CC2(c3cccc(Cl)c3)CO2)C(=O)c2ccccc2C1=O` (stereo not shown) [B, 2-[2-(3-chloro-phenyl)-oxiranyl-methyl]-2-ethyl-1H-indene-1,3 (2H)-dione], the “Damage (to ROT/N) (%)” value in the series with ROT/N (Table B3) came out at 2%.

Regarding `CON(C)C(=O)Nc1c(Cl)ccc(C(=O)C2C(=O)CCCC2=O)c1Cl` [Example I-2, N′-[2,6-dichloro-3-[(2,6-dioxo-cyclohexyl)-carbonyl]-phenyl]-N-methoxy-N-methyl-urea], the “Damage to Lindernia pyxidari (%)” value with Lindernia pyxidari (application rate 200 g/ha) is 60%. Also, in series [1] (application rate 200 g/ha), the “Damage to rice (%)” value came out at 0%.

For the origin of these results see patent US20050090397A1, “Herbicides made from substituted aryl ketones” (priority 2001, published 2005).
